In PubChem BioAssay (NCI):
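Tested at 5 concentrations; 48 h exposure; 96-well plates; endpoints linearly interpolated, else capped at highest concentration. Abbreviation: GI50, concentration required for 50% inhibition of growth. TGI marks complete inhibition of growth.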

Columns and labels:
Test in all cases: growth of human tumour cells (NCI), 48 h
SNB-19 CNS = system: SNB-19 CNS
786-0 renal = system: 786-0 renal
HT29 colon = system: HT29 colon
HL-60(TB) leukemia = system: HL-60(TB) leukemia
MDA-MB-435 = system: MDA-MB-435
MALME-3M melanoma = system: MALME-3M melanoma
HS 578T breast = system: HS 578T breast
RPMI-8226 leukemia = system: RPMI-8226 leukemia
EKVX NSCLC = system: EKVX NSCLC
RXF 393 renal = system: RXF 393 renal
HCT-116 colon = system: HCT-116 colon
T-47D breast = system: T-47D breast
A549 NSCLC = system: A549 NSCLC
SW-620 colon = system: SW-620 colon
MOLT-4 leukemia = system: MOLT-4 leukemia
UO-31 renal = system: UO-31 renal
BT-549 breast = system: BT-549 breast
SN12C renal = system: SN12C renal
OVCAR-8 ovarian = system: OVCAR-8 ovarian
SK-MEL-2 melanoma = system: SK-MEL-2 melanoma
SF-539 CNS = system: SF-539 CNS
DU-145 prostate = system: DU-145 prostate
SF-268 CNS = system: SF-268 CNS
NCI-H23 lung = system: NCI-H23 lung
SK-MEL-5 melanoma = system: SK-MEL-5 melanoma
NCI-H522 lung = system: NCI-H522 lung
NCI-H460 lung = system: NCI-H460 lung
ACHN renal = system: ACHN renal
K-562 leukemia = system: K-562 leukemia
PC-3 prostate = system: PC-3 prostate
UACC-62 melanoma = system: UACC-62 melanoma
LOX IMVI melanoma = system: LOX IMVI melanoma
HOP-92 NSCLC = system: HOP-92 NSCLC
KM12 colon = system: KM12 colon
OVCAR-5 ovarian = system: OVCAR-5 ovarian
NCI/ADR-RES ovarian = system: NCI/ADR-RES ovarian
SK-OV-3 ovarian = system: SK-OV-3 ovarian
OVCAR-4 ovarian = system: OVCAR-4 ovarian
IGROV1 ovarian = system: IGROV1 ovarian
MCF7 breast = system: MCF7 breast
SR leukemia = system: SR leukemia
OVCAR-3 ovarian = system: OVCAR-3 ovarian
COLO 205 colon = system: COLO 205 colon
SK-MEL-28 melanoma = system: SK-MEL-28 melanoma
SNB-75 CNS = system: SNB-75 CNS
HOP-62 NSCLC = system: HOP-62 NSCLC
U251 CNS = system: U251 CNS
CCRF-CEM leukemia = system: CCRF-CEM leukemia
MDA-MB-231 breast = system: MDA-MB-231 breast
UACC-257 melanoma = system: UACC-257 melanoma
SF-295 CNS = system: SF-295 CNS
CAKI-1 renal = system: CAKI-1 renal
HCT-15 colon = system: HCT-15 colon
M14 melanoma = system: M14 melanoma
NCI-H226 lung = system: NCI-H226 lung

## CCn1c(-c2cc3ccccc3cc2O)nn(C(=O)c2c(Cl)cccc2Cl)c1=S
SNB-19 CNS
  GI50: > 50 µM
  TGI: > 50 µM
786-0 renal
  GI50: 10.8 µM
  TGI: 27.4 µM
HT29 colon
  GI50: > 50 µM
  TGI: > 50 µM
HL-60(TB) leukemia
  GI50: 14.3 µM
  TGI: 38.7 µM
MDA-MB-435
  GI50: > 50 µM
  TGI: > 50 µM
MALME-3M melanoma
  GI50: 30.8 µM
  TGI: > 50 µM
HS 578T breast
  GI50: 8.76 µM
  TGI: 21.5 µM
RPMI-8226 leukemia
  GI50: 13.3 µM
  TGI: 46.1 µM
EKVX NSCLC
  GI50: > 50 µM
  TGI: > 50 µM
RXF 393 renal
  GI50: 14.5 µM
  TGI: > 50 µM
HCT-116 colon
  GI50: 28.5 µM
  TGI: > 50 µM
T-47D breast
  GI50: 21 µM
  TGI: > 50 µM
A549 NSCLC
  GI50: > 50 µM
  TGI: > 50 µM
SW-620 colon
  GI50: 15.3 µM
  TGI: > 50 µM
MOLT-4 leukemia
  GI50: 34.6 µM
  TGI: > 50 µM
UO-31 renal
  GI50: 10.5 µM
  TGI: 24.8 µM
BT-549 breast
  GI50: 15.6 µM
  TGI: 36.7 µM
SN12C renal
  GI50: 23.7 µM
  TGI: > 50 µM
OVCAR-8 ovarian
  GI50: > 50 µM
  TGI: > 50 µM
SK-MEL-2 melanoma
  GI50: 9.05 µM
  TGI: 21.1 µM
SF-539 CNS
  GI50: > 50 µM
  TGI: > 50 µM
DU-145 prostate
  GI50: 41.1 µM
  TGI: > 50 µM
SF-268 CNS
  GI50: > 50 µM
  TGI: > 50 µM
NCI-H23 lung
  GI50: 20.3 µM
  TGI: > 50 µM
SK-MEL-5 melanoma
  GI50: 10 µM
  TGI: 19.7 µM
NCI-H522 lung
  GI50: 21.6 µM
  TGI: > 50 µM
NCI-H460 lung
  GI50: > 50 µM
  TGI: > 50 µM
ACHN renal
  GI50: 16.2 µM
  TGI: > 50 µM
K-562 leukemia
  GI50: 14.3 µM
  TGI: > 50 µM
PC-3 prostate
  GI50: > 50 µM
  TGI: > 50 µM
UACC-62 melanoma
  GI50: 17.2 µM
  TGI: > 50 µM
LOX IMVI melanoma
  GI50: > 50 µM
  TGI: > 50 µM
HOP-92 NSCLC
  GI50: > 50 µM
  TGI: > 50 µM
KM12 colon
  GI50: > 50 µM
  TGI: > 50 µM
OVCAR-5 ovarian
  GI50: > 50 µM
  TGI: > 50 µM
NCI/ADR-RES ovarian
  GI50: > 50 µM
  TGI: > 50 µM
SK-OV-3 ovarian
  GI50: 15.4 µM
  TGI: 40 µM
OVCAR-4 ovarian
  GI50: > 50 µM
  TGI: > 50 µM
IGROV1 ovarian
  GI50: 6.63 µM
  TGI: 16.6 µM
MCF7 breast
  GI50: > 50 µM
  TGI: > 50 µM
SR leukemia
  GI50: 17.6 µM
  TGI: > 50 µM
OVCAR-3 ovarian
  GI50: 23.7 µM
  TGI: > 50 µM
COLO 205 colon
  GI50: 40.3 µM
  TGI: > 50 µM
SK-MEL-28 melanoma
  GI50: > 50 µM
  TGI: > 50 µM
SNB-75 CNS
  GI50: 42.5 µM
  TGI: > 50 µM
HOP-62 NSCLC
  GI50: 24.2 µM
  TGI: > 50 µM
U251 CNS
  GI50: 19.5 µM
  TGI: > 50 µM
CCRF-CEM leukemia
  GI50: 27.1 µM
  TGI: > 50 µM
MDA-MB-231 breast
  GI50: 44.4 µM
  TGI: > 50 µM
UACC-257 melanoma
  GI50: > 50 µM
  TGI: > 50 µM
SF-295 CNS
  GI50: 34.6 µM
  TGI: > 50 µM
CAKI-1 renal
  GI50: 21.4 µM
  TGI: > 50 µM
HCT-15 colon
  GI50: 16.3 µM
  TGI: > 50 µM
M14 melanoma
  GI50: 7.11 µM
  TGI: 21.9 µM
NCI-H226 lung
  GI50: 14.2 µM
  TGI: 40.2 µM
